According to patent US20260083865A1, “PROSTATE SPECIFIC MEMBRANE ANTIGEN (PSMA) LIGANDS AND USE THEREOF” (priority 2022, published 2026):
Where two headings read alike, the source gives them in different places. Numbered stars: 1 amine (or outer) side, 2 acyl side, 3 side chain; on linkers, the order of the positions; unused ones are H or OH. Bridge positions count the residues as written; N and C are the ends. Square brackets hold non-standard residues; d marks the D form. Peptide text beside a SMILES is read from it. * marks the point of attachment. X3 = O=C(O)CN1CCN(CC(=O)O)CCN(CC(=O)NCCCOCCOCCOCCCN*)CCN(CC(=O)O)CC1; DOTA = O=C(O)CN1CCN(CC(=O)O)CCN(CC(=O)*)CCN(CC(=O)O)CC1; Trp(5-Cl) = N[C@@H](Cc1c[nH]c2ccc(Cl)cc12)C(=O)O; Trp(6-Cl) = N[C@@H](Cc1c[nH]c2cc(Cl)ccc12)C(=O)O; Phe(4-CN) = N#Cc1ccc(C[C@H](N)C(=O)O)cc1; Phe(4-Cl) = N[C@@H](Cc1ccc(Cl)cc1)C(=O)O; Pro(4R-NH2) = N[C@H]1CN[C@H](C(=O)O)C1; Arg(Me) = CNC(=N)NCCC[C@H](N)C(=O)O; Ethylenediamine = C(CN[*:2])N[*:1]; d(αMeD) = C[C@@](N)(CC(=O)O)C(=O)O; X1 = O=C(CC1CCN([*:1])CC1)[*:2]; Cit = NC(=O)NCCC[C@H](N)C(=O)O; Lys(Me) = CNCCCC[C@H](N)C(=O)O; Suc = O=C(CCC(=O)[*:2])[*:1]; Tle = CC(C)(C)[C@H](N)C(=O)O; 4Abz = Nc1ccc(C(=O)O)cc1; Aib = CC(C)(N)C(=O)O; Ahx = NCCCCCC(=O)O; GABA = NCCCC(=O)O

Key:
[1] = biological target: T1, Fc-fusion protein of human PSMA (hPSMA-Fc) (Homo sapiens, UniProt Q04609); assay: Surface plasmon resonance assay (Biacore T200, single cycle kinetic); format: binding; conditions: for Kd: read-out: pKD CAT (converted)
T1 construct: purchased Acro Biosystems PSA-H5264
T1 sequence (Q04609 44-750 limits assumed): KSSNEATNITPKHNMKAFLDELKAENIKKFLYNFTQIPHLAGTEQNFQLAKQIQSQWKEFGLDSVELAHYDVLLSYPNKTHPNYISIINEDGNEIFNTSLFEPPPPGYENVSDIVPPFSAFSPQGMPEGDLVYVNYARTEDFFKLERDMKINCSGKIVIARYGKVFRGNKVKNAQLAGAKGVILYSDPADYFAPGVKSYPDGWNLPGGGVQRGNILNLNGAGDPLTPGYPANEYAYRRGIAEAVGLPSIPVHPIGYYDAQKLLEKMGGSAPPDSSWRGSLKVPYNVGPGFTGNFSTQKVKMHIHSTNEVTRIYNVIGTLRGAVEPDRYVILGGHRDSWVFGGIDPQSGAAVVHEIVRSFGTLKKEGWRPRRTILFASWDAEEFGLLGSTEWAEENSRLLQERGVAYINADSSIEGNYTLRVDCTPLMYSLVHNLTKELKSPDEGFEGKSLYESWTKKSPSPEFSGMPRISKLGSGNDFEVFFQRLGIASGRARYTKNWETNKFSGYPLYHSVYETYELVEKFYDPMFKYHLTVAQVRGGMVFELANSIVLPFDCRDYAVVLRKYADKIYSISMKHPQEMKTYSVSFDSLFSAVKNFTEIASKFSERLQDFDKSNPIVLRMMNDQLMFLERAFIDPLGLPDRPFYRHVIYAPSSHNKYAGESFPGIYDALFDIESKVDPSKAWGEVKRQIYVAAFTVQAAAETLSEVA
Outline: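 hPSMA-Fc was captured (~1000 RU) on an Fc-binding-peptide CM5 chip, and compounds were run in single cycle kinetic mode at 25° C in HBST with 0.1% DMSO. Double-blank-corrected sensorgrams were fitted to a 1:1 Langmuir model to give KD, reported as pKD.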

[2] = biological target: T2, PSMA-expressing C4-2 cells (Homo sapiens, UniProt Q04609); assay: FACS binding assay (competition with 50 nM PSM-0183); conditions: for IC50: read-out: pIC50 [C4-2] CAT (converted)
T2 construct: PSMA-expressing C4-2 cells (ATCC, Cat. No. CRL-3314) were cultured in RPMI-1640; host or cells: C4-2 cells
T2 sequence (Q04609 whole entry): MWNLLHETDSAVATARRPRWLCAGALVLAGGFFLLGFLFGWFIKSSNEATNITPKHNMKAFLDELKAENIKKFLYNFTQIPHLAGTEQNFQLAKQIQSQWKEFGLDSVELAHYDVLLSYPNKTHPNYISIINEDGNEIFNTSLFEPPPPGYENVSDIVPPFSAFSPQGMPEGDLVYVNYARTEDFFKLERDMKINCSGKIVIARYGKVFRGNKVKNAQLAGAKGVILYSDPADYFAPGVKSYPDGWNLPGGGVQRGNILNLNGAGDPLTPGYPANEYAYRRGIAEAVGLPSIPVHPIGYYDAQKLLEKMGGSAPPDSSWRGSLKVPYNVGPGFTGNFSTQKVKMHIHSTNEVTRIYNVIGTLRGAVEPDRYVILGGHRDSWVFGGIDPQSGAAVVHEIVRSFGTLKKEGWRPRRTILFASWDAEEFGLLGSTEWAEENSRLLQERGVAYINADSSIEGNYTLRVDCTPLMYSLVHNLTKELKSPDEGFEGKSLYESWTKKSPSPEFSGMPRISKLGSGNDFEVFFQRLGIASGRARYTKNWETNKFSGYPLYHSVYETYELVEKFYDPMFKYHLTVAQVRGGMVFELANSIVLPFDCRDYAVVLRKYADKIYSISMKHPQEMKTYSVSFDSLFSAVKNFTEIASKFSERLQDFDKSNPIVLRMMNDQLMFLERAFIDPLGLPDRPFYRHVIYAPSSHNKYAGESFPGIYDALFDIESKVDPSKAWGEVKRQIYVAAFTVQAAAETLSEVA
Outline: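 C4-2 cells were incubated 1 h at 4 °C with 50 nM AF488-labelled peptide PSM-0183 plus increasing test compound concentrations, then washed twice in ice-cold buffer. Median fluorescence in the AF488 channel was read by flow cytometry. IC50/pIC50 was derived by 4PL fitting of MFI versus concentration.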

[3] = PSMA SPR assay, hPSMA-Fc, 25° C., pKD category
[4] = FACS binding, PSMA-expressing C4-2 cells, pIC50 category
[5] = FACS binding, C4-2 cells, category
[6] = pKD category for PSMA SPR activity assay, hPSMA-Fc, 25° C.
[7] = pIC50 category of FACS binding, C4-2 cells

Compound	Kd [1, 3] [nM]	IC50 [2, 4] [nM]	Kd [1, 6] [nM]	IC50 [2, 7] [nM]	further results
C[C@@H](O)[C@H](NC(=O)[C@@H](NC(=O)[C@@H]1CSSC[C@H](NC(=O)[C@H](Cc2ccccc2)NC(=O)C(C)(C)NC(=O)c2ccc(NC(=O)CN3CCN(CC(=O)O)CCN(CC(=O)O)CCN(CC(=O)O)CC3)cc2)C(=O)N[C@@H](CCCCN)C(=O)N[C@@H](CCCNC(=N)N)C(=O)NC(C)(C)C(=O)N[C@@H](CC(N)=O)C(=O)N1)C(C)(C)C)C(N)=O [PSM-0316, DOTA-Pab-Aib-Phe-[Cys-Lys-Arg-Aib-Asn-Cys]-Tle-Thr-NH2] ({DOTA-4Abz}-[Aib]FCKR[Aib]NC[Tle]T-NH2; disulfide 3-8)	< 12.6	< 200			
InLSC-Cmp-Thr-Aib-Pcf-[Cys-Lys(Me)-Arg(Me)-Aib-Asn-Cys]-Tle-Thr-NH2 [PSM-0604]					pKD CAT ([1]; PSMA SPR assay, category): A (pKD values >7.9); pIC50 [C4-2] CAT [2, 5]: A (pIC50 values >6.7)
CC(=O)N[C@H](C(=O)NC(C)(C)C(=O)N[C@@H](Cc1ccccc1)C(=O)N[C@H]1CSSC[C@@H](C(=O)N[C@H](C(=O)N[C@H](C(N)=O)[C@@H](C)O)C(C)(C)C)NC(=O)[C@H](Cc2c[nH]c3ccccc23)NC(=O)C(C)(C)NC(=O)[C@H](CCCNC(=N)N)NC(=O)[C@H](CCCCN)NC1=O)[C@@H](C)O [PSM-0589, Ac-Thr-Aib-Phe-[Cys-Lys-Arg-Aib-Trp-Cys]-Tle-Thr-NH2] (Ac-T[Aib]FCKR[Aib]WC[Tle]T-NH2; disulfide 4-9)					Kd ([1]; PSMA SPR assay, category): < 12.6 nM; IC50 [2, 5]: < 200 nM
C[C@@H](O)[C@H](NC(=O)CCC(=O)NCCCOCCOCCOCCCNC(=O)CN1CCN(CC(=O)O)CCN(CC(=O)O)CCN(CC(=O)O)CC1)C(=O)NC(C)(C)C(=O)N[C@@H](Cc1ccccc1)C(=O)N[C@H]1CSSC[C@@H](C(=O)N[C@H](C(=O)N[C@H](C(=O)N[C@@H](CC(=O)O)C(N)=O)[C@@H](C)O)C(C)(C)C)NC(=O)[C@H](CC(N)=O)NC(=O)C(C)(C)NC(=O)[C@H](CCCNC(=N)N)NC(=O)[C@H](CCCCN)NC1=O [PSM-0398, DOTA-Ttds-Thr-Aib-Phe-[Cys-Lys-Arg-Aib-Asn-Cys]-Tle-Thr-Asp-NH2] ({X3-Suc}-T[Aib]FCKR[Aib]NC[Tle]TD-NH2; disulfide 4-9)			< 12.6	< 200	
CC(=O)N[C@H](C(=O)NC(C)(C)C(=O)N[C@@H](Cc1ccccc1)C(=O)N[C@H]1CSSC[C@H](C(=O)N[C@H](C(=O)N[C@H](C(N)=O)[C@@H](C)O)C(C)(C)C)NC(=O)[C@H](CC(N)=O)NC(=O)C(C)(C)NC(=O)[C@H](CCCNC(=N)N)NC(=O)[C@H](CCCCN)NC1=O)[C@@H](C)O [PSM-0331, Ac-Thr-Aib-Phe-[Cys-Lys-Arg-Aib-Asn-cys]-Tle-Thr-NH2] (Ac-T[Aib]FCKR[Aib]N[dC][Tle]T-NH2; disulfide 4-9)	> 501	200 to 1260			
CC(=O)N[C@H](C(=O)NC(C)(C)C(=O)N[C@@H](Cc1ccccc1)C(=O)N[C@H]1CSSC[C@@H](C(=O)N[C@H](C(=O)NCCCC(N)=O)C(C)(C)C)NC(=O)[C@H](CC(N)=O)NC(=O)C(C)(C)NC(=O)[C@H](CCCNC(=N)N)NC(=O)[C@H](CCCCN)NC1=O)[C@@H](C)O [PSM-0297, Ac-Thr-Aib-Pho-[Cys-Lys-Arg-Aib-Asn-Cys]-Tle-Gab-NH2] (Ac-T[Aib]FCKR[Aib]NC[Tle][GABA]-NH2; disulfide 4-9)	< 12.6	< 200			
C[C@@H](O)[C@H](NC(=O)[C@@H](NC(=O)[C@@H]1CSSC[C@H](NC(=O)[C@H](Cc2c[nH]c3cc(Cl)ccc23)NC(=O)C(C)(C)NC(=O)[C@@H](NC(=O)CC2CCN(C(=O)CN3CCN(CC(=O)O)CCN(CC(=O)O)CCN(CC(=O)O)CC3)CC2)[C@@H](C)O)C(=O)N[C@@H](CCCCN)C(=O)N[C@@H](CCCNC(N)=O)C(=O)NC(C)(C)C(=O)N[C@@H](CC(N)=O)C(=O)N1)C(C)(C)C)C(N)=O [PSM-0304, DOTA-Cmp-Thr-Aib-6Clw-[Cys-Lys-Cit-Aib-Asn-Cys]-Tle-Thr-NH2] ({DOTA}-[X1]T[Aib][Trp(6-Cl)]CK[Cit][Aib]NC[Tle]T-NH2; disulfide 5-10)	< 12.6	200 to 1260			
CC(=O)N[C@H](C(=O)NC(C)(C)C(=O)N[C@@H](Cc1ccccc1)C(=O)N[C@H]1CSSC[C@@H](C(=O)N[C@H](C(=O)N[C@H](C(=O)N[C@@H](CC(=O)O)C(N)=O)[C@@H](C)O)C(C)(C)C)NC(=O)[C@H](CC(N)=O)NC(=O)[C@H](C)NC(=O)[C@H](CCCNC(=N)N)NC(=O)[C@@H]2C[C@@H](N)CN2C1=O)[C@@H](C)O [PSM-0422, Ac-Thr-Aib-Phe-[Cys-Tap-Arg-Ala-Asn-Cys]-Tle-Thr-Asp-NH2] (Ac-T[Aib]FC[Pro(4R-NH2)]RANC[Tle]TD-NH2; disulfide 4-9)			126 to 501	< 200	
CNCCCC[C@@H]1NC(=O)[C@@H](NC(=O)[C@H](Cc2c[nH]c3ccc(Cl)cc23)NC(=O)C(C)(C)NC(=O)[C@@H](NC(=O)CC2CCN(C(=O)CN3CCN(CC(=O)O)CCN(CC(=O)O)CCN(CC(=O)O)CC3)CC2)[C@@H](C)O)CSSC[C@@H](C(=O)N[C@H](C(=O)N[C@H](C(N)=O)[C@@H](C)O)C(C)(C)C)NC(=O)[C@H](CC(N)=O)NC(=O)C(C)(C)NC(=O)[C@H](CCCNC(=N)NC)NC1=O [PSM-0308, DOTA-Cmp-Thr-Aib-5Clw-[Cys-Lys(Me)-Arg(Me)-Aib-Asn-Cys]-Tle-Thr-NH2] ({DOTA}-[X1]T[Aib][Trp(5-Cl)]C[Lys(Me)][Arg(Me)][Aib]NC[Tle]T-NH2; disulfide 5-10)	126 to 501	200 to 1260			
C[C@@H](O)[C@H](NC(=O)[C@@H](NC(=O)[C@@H]1CSSC[C@H](NC(=O)[C@H](Cc2ccc(Cl)cc2)NC(=O)C(C)(C)NC(=O)[C@@H](NC(=O)CC2CCN(C(=O)CN3CCN(CC(=O)O)CCN(CC(=O)O)CCN(CC(=O)O)CC3)CC2)[C@@H](C)O)C(=O)N[C@@H](CCCCN)C(=O)N[C@@H](CCCNC(=N)N)C(=O)N[C@](C)(CC(=O)O)C(=O)N[C@@H](CC(N)=O)C(=O)N1)C(C)(C)C)C(N)=O [PSM-0227, DOTA-Cmp-Thr-Aib-Pcf-[Cys-Lys-Arg-amd-Asn-Cys]-Tle-Thr-NH2] ({DOTA}-[X1]T[Aib][Phe(4-Cl)]CKR[d(αMeD)]NC[Tle]T-NH2; disulfide 5-10)					Kd ([1]; SPR, hPSMA-Fc, single cycle kinetic, 25° C., category): < 12.6 nM; IC50 ([2]; FACS binding, C4-2 cells, competition with 50 nM PSM-0183, category): < 200 nM
CC(=O)N[C@H](C(=O)NC(C)(C)C(=O)N[C@@H](Cc1ccccc1)C(=O)N[C@H]1CSSC[C@@H](C(=O)N[C@H](C(=O)N[C@H](C(N)=O)[C@@H](C)O)C(C)(C)C)NC(=O)[C@H](Cc2ccccc2)NC(=O)C(C)(C)NC(=O)[C@H](CCCNC(=N)N)NC(=O)[C@H](CCCCN)NC1=O)[C@@H](C)O [PSM-0541, Ac-Thr-Aib-Phe-[Cys-Lys-Arg-Aib-Phe-Cys]-Tle-NH2] (Ac-T[Aib]FCKR[Aib]FC[Tle]T-NH2; disulfide 4-9)			< 12.6	< 200	
C[C@@H](O)[C@H](NC(=O)[C@@H](NC(=O)[C@@H]1CSSC[C@H](NC(=O)[C@H](Cc2ccccc2)NC(=O)C(C)(C)NC(=O)CCCCCNC(=O)CN2CCN(CC(=O)O)CCN(CC(=O)O)CCN(CC(=O)O)CC2)C(=O)N[C@@H](CCCCN)C(=O)N[C@@H](CCCNC(=N)N)C(=O)NC(C)(C)C(=O)N[C@@H](CC(N)=O)C(=O)N1)C(C)(C)C)C(N)=O [PSM-0513, DOTA-Ahx-Aib-Phe-[Cys-Lys-Arg-Aib-Asn-Cys]-Tle-Thr-NH2] ({DOTA-Ahx}-[Aib]FCKR[Aib]NC[Tle]T-NH2; disulfide 3-8)			< 12.6	< 200	
CC(=O)N[C@H](C(=O)NC(C)(C)C(=O)N[C@@H](Cc1ccc(Cl)cc1)C(=O)N[C@H]1CSSC[C@@H](C(=O)N[C@H](C(N)=O)C(C)(C)C)NC(=O)[C@H](CC(N)=O)NC(=O)C(C)(C)NC(=O)[C@H](CCCNC(=N)N)NC(=O)[C@H](CCCCN)NC1=O)[C@@H](C)O [PSM-0367, Ac-Thr-Aib-Pcf-[Cys-Lys-Arg-Aib-Asn-Cys]-Tle-NH2] (Ac-T[Aib][Phe(4-Cl)]CKR[Aib]NC[Tle]-NH2; disulfide 4-9)			< 12.6	< 200	
CC(=O)N[C@H](C(=O)NC(C)(C)C(=O)N[C@@H](Cc1ccc(C#N)cc1)C(=O)N[C@H]1CSSC[C@@H](C(=O)N[C@H](C(=O)N[C@H](C(N)=O)[C@@H](C)O)C(C)(C)C)NC(=O)[C@H](CC(N)=O)NC(=O)C(C)(C)NC(=O)[C@H](CCCNC(=N)N)NC(=O)[C@H](CCCCN)NC1=O)[C@@H](C)O [PSM-0278, Ac-Thr-Aib-Pnf-[Cys-Lys-Arg-Aib-Asn-Cys]-Tle-Thr-NH2] (Ac-T[Aib][Phe(4-CN)]CKR[Aib]NC[Tle]T-NH2; disulfide 4-9)	< 12.6	< 200			
CC(=O)N1CCC(CC(=O)N[C@H](C(=O)NC(C)(C)C(=O)N[C@@H](Cc2ccc(Cl)cc2)C(=O)N[C@H]2CSSC[C@@H](C(=O)N[C@H](C(=O)NCCNC(=O)CN3CCN(CC(=O)O)CCN(CC(=O)O)CCN(CC(=O)O)CC3)C(C)(C)C)NC(=O)[C@H](CC(N)=O)NC(=O)C(C)(C)NC(=O)[C@H](CCCNC(=N)N)NC(=O)[C@H](CCCCN)NC2=O)[C@@H](C)O)CC1 [PSM-0379, Ac-Cmp-Thr-Aib-Pcf-[Cys-Lys-Arg-Aib-Asn-Cys]-Tle-en-DOTA] (Ac-[X1]T[Aib][Phe(4-Cl)]CKR[Aib]NC[Tle]-{Ethylenediamine-DOTA}; disulfide 5-10)			< 12.6	< 200	
